Results from PubChem BioAssay AID1999 (Broad Institute, 2009).
Results filed as inconclusive are left out. Activity calls are given as the source filed them. How the calls were made is not given here.

Test system: H4 cells, PrP 5'UTR luciferase reporter, luminescence
Experiment: activators of PrP 5'UTR-driven reporter translation, dose response, luminescence (AID 1999)

SMILES: C#CCOCCOCCOCCNc1nc(N2CCN(C(=O)CCCCCCCCCCNC(=O)[C@H](CCCCN)n3cc(CCCC(=O)O)nn3)CC2)nc(N2CCN(C(=O)CCCCCCCCCCNC(=O)[C@H](CCCN=C(N)N)n3cc(C[C@@H](C)CC)nn3)CC2)n1
- EC50: > 12 µM (inactive)
